{"source": "patent US20150322033A1", "about": "“ANTIBACTERIAL AGENT” (priority 2012, published 2015)"}
{"system": "S. aureus Mu50", "experiment": "microbe, parasite or virus in culture", "type": "cell-based, Staphylococcus aureus", "conditions": "Example 1, Tables 1 to 10", "experimental": "(§1) S. aureus Mu50 (refer to Hiramatsu, K., Hanaki H., et al., J. Antimicrob. Chemother., 1997, 40(1), 135-6) or S. aureus FDA209P (ATCC 6538P) was cultured overnight at 37° C. in 4 mL of TBS (Tryptical Soy Broth, produced by Becton Dickinson) with shaking. After completion of the culture, the cells were suspended in fresh TBS to prepare a cell suspension showing an absorbance of 0.3 at 578 nm. Then, the cell suspension was diluted 500 times with CAMHB mentioned above.\n(§2) CAMHB containing each test compound at each of the aforementioned concentrations was added to each well of a 96-well plate in a volume of 50 μL/well, the aforementioned cell suspension diluted 500 time was added to the well in a volume of 50 μL/well, and stationary culture was carried out overnight at 37° C.\n(§3) MIC values (mg/L) of the flavones and quinolones against the strains were measured in the same manner as that of the measurement of MIC of Example 1, except that CAMHB containing each of the aforementioned flavones and quinolones prepared in Example 2 was used instead of CAMHB containing each of the test compounds.\n(§4) MIC values of the flavones and quinolone for the strains were measured in the same manners as those of Example 1, except that S. aureus Mu50 NR-1 was also used as Staphylococcus aureus in addition to S. aureus FDA209P and S. aureus Mu50, cell suspensions of the strains were prepared.\n(§5) In the same manner as that of Example 1, MIC values of M-246, M-21, J-Q21, and J-Q12.1 for Staphylococcus aureus were measured. M-246 and M-21 were obtained as commercial products, and as J-Q21 and J-Q12.1, those synthesized in Examples 6 and 7 were used.", "units": {"MIC (mg/L) Mu50": "mg/L"}}
{"smiles": "COc1cc(O)c(CN2CCCCC2C)c2oc(-c3ccccc3)cc(=O)c12", "note": "(stereo not drawn) [compound 52]", "MIC (mg/L) Mu50": ">128"}
{"smiles": "O=c1cc(-c2ccccc2)oc2ccc3ccccc3c12", "note": "[compound 57]", "MIC (mg/L) Mu50": 128}
{"smiles": "O=c1cc(-c2ccccc2)oc2c1ccc1ccccc12", "note": "[compound 58]", "MIC (mg/L) Mu50": 128}
{"smiles": "O=c1cc(-c2ccc(O)c(O)c2)oc2c(C3OC(CO)C(O)C(O)C3O)c(O)cc(O)c12", "note": "(stereo not drawn) [compound 60]", "MIC (mg/L) Mu50": ">128"}
{"smiles": "O=c1c(O)c(-c2ccc(O)c(O)c2)oc2c(OC3OC(CO)C(O)C(O)C3O)c(O)cc(O)c12", "note": "(stereo not drawn) [compound 61]", "MIC (mg/L) Mu50": 128}
{"smiles": "O=C(O)C1OC(Oc2cc(O)c3c(=O)cc(-c4ccc(O)c(O)c4)oc3c2)C(O)C(O)C1O", "note": "(stereo not drawn) [compound 62]", "MIC (mg/L) Mu50": ">128"}
{"smiles": "O=c1cc(-c2ccc(OC3OC(CO)C(O)C(O)C3O)cc2)oc2cc(O)cc(O)c12", "note": "(stereo not drawn) [compound 63]", "MIC (mg/L) Mu50": 128}
{"smiles": "O=c1c(OC2OC(CO)C(O)C(O)C2O)c(-c2ccc(O)cc2)oc2cc(O)cc(O)c12", "note": "(stereo not drawn) [compound 65]", "MIC (mg/L) Mu50": ">128"}
{"smiles": "O=C(O)C1OC(Oc2ccc(-c3cc(=O)c4c(O)cc(O)cc4o3)cc2O)C(O)C(O)C1O", "note": "(stereo not drawn) [compound 67]", "MIC (mg/L) Mu50": 128}
{"smiles": "CC(=O)Oc1cc(OC(C)=O)c2c(=O)c(-c3ccc4c(c3)OCCO4)c(C)oc2c1", "note": "[compound 77]", "MIC (mg/L) Mu50": ">128"}
{"smiles": "COc1cc(O)c2c(=O)c(-c3ccc(OC4OC(CO)C(O)C(O)C4O)cc3)coc2c1", "note": "(stereo not drawn) [compound 78]", "MIC (mg/L) Mu50": ">128"}
{"smiles": "O=c1c(-c2ccc(OC3OC(CO)C(O)C(O)C3O)cc2)coc2cc(O)cc(O)c12", "note": "(stereo not drawn) [compound 81]", "MIC (mg/L) Mu50": ">128"}
{"smiles": "COc1cc(OC)c2c(=O)c(-c3ccc(OC4OC(CO)C(O)C(O)C4O)cc3)coc2c1", "note": "(stereo not drawn) [compound 85]", "MIC (mg/L) Mu50": ">128"}
{"smiles": "Cc1cc2c(cc1-c1c(C)oc3cc(O)cc(O)c3c1=O)OCCO2", "note": "[compound 87]", "MIC (mg/L) Mu50": 128}
{"smiles": "COc1cc(OC)c2c(=O)c(-c3cc4c(cc3C)OCCO4)c(C)oc2c1", "note": "[compound 88]", "MIC (mg/L) Mu50": ">128"}
{"smiles": "CC(=O)Oc1cc(OC(C)=O)c2c(=O)c(-c3cc4c(cc3C)OCCO4)c(C)oc2c1", "note": "[compound 89]", "MIC (mg/L) Mu50": 128}
{"smiles": "O=C(O)C1OC(Oc2ccc(-c3coc4cc(O)cc(O)c4c3=O)cc2)C(O)C(O)C1O", "note": "(stereo not drawn) [compound 95]", "MIC (mg/L) Mu50": ">128"}
{"smiles": "COc1cc(OC2OC(CO)C(O)C(O)C2O)c2c(=O)c(-c3ccc(O)cc3)coc2c1", "note": "(stereo not drawn) [compound 96]", "MIC (mg/L) Mu50": 128}
{"smiles": "COc1c2c(cc3occ(-c4ccc(O)cc4)c(=O)c13)OCO2", "note": "[compound 97]", "MIC (mg/L) Mu50": 128}
{"smiles": "O=c1c(-c2ccc3c(c2)OCCO3)coc2cc(O)cc(O)c12", "note": "[compound 106]", "MIC (mg/L) Mu50": 64}
{"system": "S. aureus Mu50", "experiment": "microbe, parasite or virus in culture", "type": "cell-based, Staphylococcus aureus", "conditions": "Staphylococcus aureus, MU50, read-out: MIC (mg/L) Mu50", "experimental": "as §1, §2, §3, §4, §5", "units": {"MIC": "mg/L"}}
{"smiles": "COc1ccc(-c2coc3cc(OC(=O)N(C)C)cc(O)c3c2=O)cc1OC", "note": "[compound 79]", "MIC": "> 128"}
{"smiles": "COc1ccc(-c2coc3cc(OC(=O)N(C)C)cc(OC)c3c2=O)cc1OC", "note": "[compound 80]", "MIC": "> 128"}
{"system": "S. aureus Mu50", "experiment": "microbe, parasite or virus in culture", "type": "cell-based, Staphylococcus aureus", "conditions": "Staphylococcus aureus, MU50, read-out: MIC (mg/L) Mu50, Example 1, Tables 1 to 10", "experimental": "as §1, §2, §3, §4, §5", "units": {"MIC": "mg/L"}}
{"smiles": "O=c1c(O)c(-c2ccccc2S(=O)(=O)O)oc2ccccc12", "note": "[compound 54]", "MIC": 128}
{"smiles": "Cc1c(-c2ccccc2)oc2c(C(=O)OCCN3CCCCC3)cccc2c1=O", "note": "[compound 55]", "MIC": "> 128"}
{"system": "S. aureus FDA209P (ATCC 6538P)", "experiment": "microbe, parasite or virus in culture", "type": "cell-based, Staphylococcus aureus", "conditions": "Example 1, Tables 1 to 10", "experimental": "as §1, §2, §3, §4, §5", "units": {"MIC (mg/L) FDA209P": "mg/L"}}
{"smiles": "COc1cc(O)c(CN2CCCCC2C)c2oc(-c3ccccc3)cc(=O)c12", "note": "(stereo not drawn) [compound 52]", "MIC (mg/L) FDA209P": ">128"}
{"smiles": "O=c1cc(-c2ccccc2)oc2ccc3ccccc3c12", "note": "[compound 57]", "MIC (mg/L) FDA209P": 128}
{"smiles": "O=c1cc(-c2ccccc2)oc2c1ccc1ccccc12", "note": "[compound 58]", "MIC (mg/L) FDA209P": 128}
{"smiles": "O=c1cc(-c2ccc(O)c(O)c2)oc2c(C3OC(CO)C(O)C(O)C3O)c(O)cc(O)c12", "note": "(stereo not drawn) [compound 60]", "MIC (mg/L) FDA209P": ">128"}
{"smiles": "O=c1c(O)c(-c2ccc(O)c(O)c2)oc2c(OC3OC(CO)C(O)C(O)C3O)c(O)cc(O)c12", "note": "(stereo not drawn) [compound 61]", "MIC (mg/L) FDA209P": 128}
{"smiles": "O=C(O)C1OC(Oc2cc(O)c3c(=O)cc(-c4ccc(O)c(O)c4)oc3c2)C(O)C(O)C1O", "note": "(stereo not drawn) [compound 62]", "MIC (mg/L) FDA209P": ">128"}
{"smiles": "O=c1cc(-c2ccc(OC3OC(CO)C(O)C(O)C3O)cc2)oc2cc(O)cc(O)c12", "note": "(stereo not drawn) [compound 63]", "MIC (mg/L) FDA209P": 128}
{"smiles": "O=c1c(OC2OC(CO)C(O)C(O)C2O)c(-c2ccc(O)cc2)oc2cc(O)cc(O)c12", "note": "(stereo not drawn) [compound 65]", "MIC (mg/L) FDA209P": ">128"}
{"smiles": "O=C(O)C1OC(Oc2ccc(-c3cc(=O)c4c(O)cc(O)cc4o3)cc2O)C(O)C(O)C1O", "note": "(stereo not drawn) [compound 67]", "MIC (mg/L) FDA209P": 128}
{"smiles": "CC(=O)Oc1cc(OC(C)=O)c2c(=O)c(-c3ccc4c(c3)OCCO4)c(C)oc2c1", "note": "[compound 77]", "MIC (mg/L) FDA209P": ">128"}
{"smiles": "COc1cc(O)c2c(=O)c(-c3ccc(OC4OC(CO)C(O)C(O)C4O)cc3)coc2c1", "note": "(stereo not drawn) [compound 78]", "MIC (mg/L) FDA209P": ">128"}
{"smiles": "O=c1c(-c2ccc(OC3OC(CO)C(O)C(O)C3O)cc2)coc2cc(O)cc(O)c12", "note": "(stereo not drawn) [compound 81]", "MIC (mg/L) FDA209P": ">128"}
{"smiles": "COc1cc(OC)c2c(=O)c(-c3ccc(OC4OC(CO)C(O)C(O)C4O)cc3)coc2c1", "note": "(stereo not drawn) [compound 85]", "MIC (mg/L) FDA209P": ">128"}
{"smiles": "Cc1cc2c(cc1-c1c(C)oc3cc(O)cc(O)c3c1=O)OCCO2", "note": "[compound 87]", "MIC (mg/L) FDA209P": 64}
{"smiles": "COc1cc(OC)c2c(=O)c(-c3cc4c(cc3C)OCCO4)c(C)oc2c1", "note": "[compound 88]", "MIC (mg/L) FDA209P": 128}
{"smiles": "CC(=O)Oc1cc(OC(C)=O)c2c(=O)c(-c3cc4c(cc3C)OCCO4)c(C)oc2c1", "note": "[compound 89]", "MIC (mg/L) FDA209P": 128}
{"smiles": "O=C(O)C1OC(Oc2ccc(-c3coc4cc(O)cc(O)c4c3=O)cc2)C(O)C(O)C1O", "note": "(stereo not drawn) [compound 95]", "MIC (mg/L) FDA209P": 128}
{"smiles": "COc1cc(OC2OC(CO)C(O)C(O)C2O)c2c(=O)c(-c3ccc(O)cc3)coc2c1", "note": "(stereo not drawn) [compound 96]", "MIC (mg/L) FDA209P": 128}
{"smiles": "COc1c2c(cc3occ(-c4ccc(O)cc4)c(=O)c13)OCO2", "note": "[compound 97]", "MIC (mg/L) FDA209P": 128}
{"smiles": "O=c1c(-c2ccc3c(c2)OCCO3)coc2cc(O)cc(O)c12", "note": "[compound 106]", "MIC (mg/L) FDA209P": 64}
{"system": "S. aureus FDA209P (ATCC 6538P)", "experiment": "microbe, parasite or virus in culture", "type": "cell-based, Staphylococcus aureus", "conditions": "Staphylococcus aureus, read-out: MIC (mg/L) FDA209P", "experimental": "as §1, §2, §3, §4, §5", "units": {"MIC": "mg/L"}}
{"smiles": "COc1ccc(-c2coc3cc(OC(=O)N(C)C)cc(O)c3c2=O)cc1OC", "note": "[compound 79]", "MIC": "> 128"}
{"smiles": "COc1ccc(-c2coc3cc(OC(=O)N(C)C)cc(OC)c3c2=O)cc1OC", "note": "[compound 80]", "MIC": "> 128"}
{"system": "S. aureus FDA209P (ATCC 6538P)", "experiment": "microbe, parasite or virus in culture", "type": "cell-based, Staphylococcus aureus", "conditions": "Staphylococcus aureus; Example 1, Tables 1 to 10; read-out: MIC (mg/L) FDA209P", "experimental": "as §1, §2, §3, §4, §5", "units": {"MIC": "mg/L"}}
{"smiles": "O=c1c(O)c(-c2ccccc2S(=O)(=O)O)oc2ccccc12", "note": "[compound 54]", "MIC": 128}
{"smiles": "Cc1c(-c2ccccc2)oc2c(C(=O)OCCN3CCCCC3)cccc2c1=O", "note": "[compound 55]", "MIC": 128}
